Article PMC11912475 (Journal of Medicinal Chemistry, 2025)

What was measured:
Sigma σ1 = biological target: T1, Sigma σ1 (Homo sapiens, UniProt Q99720); experiment: Radioligand displacement binding assay, [3H]pentazocine, sigma σ1
T1 construct: Sigma σ1; Source: Human Jurkat cells; host or cells: Jurkat

[1] = biological target: T2, GluN1-GluN2B NMDAR subtype (Homo sapiens, UniProt Q05586+Q13224); experiment: FLIPR/Ca2+ assay, NMDAR GluN1-GluN2B subtype in CHO cells; assay type: cell-based; settings: CHO cells, 10 μM L-glutamate and 10 μM glycine; n.d. = 50% of inhibition could not be reached at the highest concentration used
T2 construct: host or cells: NR1-2B-CHO cells, constitutive expression
How it was run: (§1)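 Fluo-4-loaded CHO cells (with probenecid and 500 μM ketamine during loading) stimulated with 10 μM L-glutamate plus 10 μM glycine added together with compounds, in HEPES buffer pH 7.3 with 2 mM CaCl2.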

Serotonin 5-HT1A = biological target: T3, Serotonin 5-HT1A (Homo sapiens, UniProt P08908); experiment: Radioligand displacement binding assay, [3H]8-OH-DPAT, 5-HT1A
T3 construct: host or cells: CHO-K1
T3 sequence (P08908 1-422): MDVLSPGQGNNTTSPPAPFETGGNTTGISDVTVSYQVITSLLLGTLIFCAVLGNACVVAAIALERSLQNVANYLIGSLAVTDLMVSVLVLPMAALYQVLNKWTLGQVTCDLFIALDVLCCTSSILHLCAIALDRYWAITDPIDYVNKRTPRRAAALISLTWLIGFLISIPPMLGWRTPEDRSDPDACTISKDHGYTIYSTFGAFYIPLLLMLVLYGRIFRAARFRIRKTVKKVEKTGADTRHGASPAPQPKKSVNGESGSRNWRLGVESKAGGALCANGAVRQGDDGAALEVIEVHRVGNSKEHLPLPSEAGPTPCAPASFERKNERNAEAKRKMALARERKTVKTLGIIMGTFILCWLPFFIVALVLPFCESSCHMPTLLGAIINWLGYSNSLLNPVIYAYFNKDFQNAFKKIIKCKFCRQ

Serotonin 5-HT2A = biological target: T4, Serotonin 5-HT2A (Homo sapiens, UniProt P28223); experiment: Radioligand displacement binding assay, [3H]ketanserin, 5-HT2A
T4 construct: host or cells: CHO-K1
T4 sequence (P28223 whole entry): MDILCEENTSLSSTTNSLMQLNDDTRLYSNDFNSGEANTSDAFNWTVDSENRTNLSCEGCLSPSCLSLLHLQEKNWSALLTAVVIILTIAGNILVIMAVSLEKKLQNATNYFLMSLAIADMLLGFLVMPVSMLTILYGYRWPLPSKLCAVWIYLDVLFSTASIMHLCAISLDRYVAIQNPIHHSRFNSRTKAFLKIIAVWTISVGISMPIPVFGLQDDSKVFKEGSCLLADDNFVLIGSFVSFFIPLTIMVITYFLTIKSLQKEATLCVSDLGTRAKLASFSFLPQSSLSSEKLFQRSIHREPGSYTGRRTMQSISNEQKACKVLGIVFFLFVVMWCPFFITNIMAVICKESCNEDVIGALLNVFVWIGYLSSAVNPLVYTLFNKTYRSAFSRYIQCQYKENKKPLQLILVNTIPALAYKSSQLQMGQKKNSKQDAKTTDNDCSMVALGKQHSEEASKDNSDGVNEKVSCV

Histamine H1 = biological target: T5, Histamine H1 (Homo sapiens, UniProt P35367); experiment: Radioligand displacement binding assay, [3H]pyrilamine, H1
T5 construct: host or cells: CHO-K1
T5 sequence (P35367 whole entry): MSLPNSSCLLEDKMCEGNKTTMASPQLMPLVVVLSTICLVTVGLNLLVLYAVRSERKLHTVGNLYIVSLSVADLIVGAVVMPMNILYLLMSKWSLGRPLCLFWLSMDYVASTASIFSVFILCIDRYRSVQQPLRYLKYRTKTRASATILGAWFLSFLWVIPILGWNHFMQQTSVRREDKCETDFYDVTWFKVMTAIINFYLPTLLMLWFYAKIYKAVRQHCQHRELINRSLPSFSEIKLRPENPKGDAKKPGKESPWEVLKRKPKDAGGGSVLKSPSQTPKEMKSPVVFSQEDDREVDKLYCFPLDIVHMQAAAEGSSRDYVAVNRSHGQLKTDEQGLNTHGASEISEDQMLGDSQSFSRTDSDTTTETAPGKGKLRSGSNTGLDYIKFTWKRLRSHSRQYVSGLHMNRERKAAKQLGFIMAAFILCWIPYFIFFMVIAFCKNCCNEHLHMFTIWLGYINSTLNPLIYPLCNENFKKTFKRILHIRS

Serotonin 5-HT5A = biological target: T6, Serotonin 5-HT5A (Homo sapiens, UniProt P47898); experiment: Radioligand displacement binding assay, [3H]LSD, 5-HT5A
T6 construct: host or cells: CHO-K1
T6 sequence (P47898 whole entry): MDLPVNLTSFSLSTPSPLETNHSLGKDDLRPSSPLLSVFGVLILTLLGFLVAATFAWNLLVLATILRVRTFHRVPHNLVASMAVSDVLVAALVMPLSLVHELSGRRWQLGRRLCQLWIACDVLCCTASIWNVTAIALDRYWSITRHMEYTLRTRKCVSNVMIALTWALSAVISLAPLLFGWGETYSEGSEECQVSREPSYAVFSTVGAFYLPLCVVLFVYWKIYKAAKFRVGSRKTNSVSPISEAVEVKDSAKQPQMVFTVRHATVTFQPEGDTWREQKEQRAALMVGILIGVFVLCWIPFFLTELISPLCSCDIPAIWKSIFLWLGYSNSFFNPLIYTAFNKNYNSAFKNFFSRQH

μ opioid receptor (MOP) = biological target: T7, μ opioid receptor (MOP) (Homo sapiens, UniProt P35372); experiment: biochemical; assay type: binding; settings: for inhibition at 0.3 µM / inhibition at 3 µM: read-out: % inhibition of binding, MOP
T7 construct: host or cells: CHO-K1
T7 sequence (P35372 whole entry): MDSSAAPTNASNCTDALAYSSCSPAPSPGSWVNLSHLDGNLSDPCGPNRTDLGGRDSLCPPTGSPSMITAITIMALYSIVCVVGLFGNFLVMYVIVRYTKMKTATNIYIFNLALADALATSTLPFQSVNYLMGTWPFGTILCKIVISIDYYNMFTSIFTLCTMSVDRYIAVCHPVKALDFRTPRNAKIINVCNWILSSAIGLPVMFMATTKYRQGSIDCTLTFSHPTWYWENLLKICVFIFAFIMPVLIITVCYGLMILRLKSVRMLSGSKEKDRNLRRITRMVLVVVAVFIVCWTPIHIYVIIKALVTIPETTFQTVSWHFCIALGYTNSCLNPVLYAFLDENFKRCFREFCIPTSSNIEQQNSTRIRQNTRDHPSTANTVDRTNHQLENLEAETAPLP

[2] = biological target: T8, Norepinephrine transporter NET (Homo sapiens, UniProt P23975); experiment: Radioligand displacement binding assay, [125I]RTI-55, NET
T8 construct: host or cells: MDCK
T8 sequence (P23975 whole entry): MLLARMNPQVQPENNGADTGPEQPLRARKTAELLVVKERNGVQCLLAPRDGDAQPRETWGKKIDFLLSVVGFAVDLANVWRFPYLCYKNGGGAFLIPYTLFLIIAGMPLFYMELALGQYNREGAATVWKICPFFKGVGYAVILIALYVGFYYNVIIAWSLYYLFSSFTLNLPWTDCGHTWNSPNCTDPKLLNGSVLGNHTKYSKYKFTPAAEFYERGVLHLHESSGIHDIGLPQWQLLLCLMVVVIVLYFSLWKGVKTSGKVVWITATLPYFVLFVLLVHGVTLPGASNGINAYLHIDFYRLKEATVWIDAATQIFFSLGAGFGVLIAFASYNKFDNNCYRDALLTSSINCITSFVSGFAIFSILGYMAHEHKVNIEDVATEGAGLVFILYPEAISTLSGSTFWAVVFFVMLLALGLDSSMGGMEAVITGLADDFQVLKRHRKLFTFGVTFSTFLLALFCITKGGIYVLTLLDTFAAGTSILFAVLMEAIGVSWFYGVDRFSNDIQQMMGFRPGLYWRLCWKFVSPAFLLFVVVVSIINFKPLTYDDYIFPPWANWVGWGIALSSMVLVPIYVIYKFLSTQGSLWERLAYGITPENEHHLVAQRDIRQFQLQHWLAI

[3] = biological target: GluN1-GluN2A NMDAR subtype (Homo sapiens, UniProt Q05586+Q12879); experiment: FLIPR/Ca2+ assay, NMDAR GluN1-GluN2A subtype in CHO cells; assay type: cell-based; settings: CHO cells, 10 μM L-glutamate and 10 μM glycine; n.d. = 50% of inhibition could not be reached at the highest concentration used
How it was run: as §1

Serotonin 5-HT2C = biological target: T9, Serotonin 5-HT2C (Homo sapiens, UniProt P28335); experiment: Radioligand displacement binding assay, [3H]mesulergine, 5-HT2C
T9 construct: host or cells: CHO-K1
T9 sequence (P28335 33-458): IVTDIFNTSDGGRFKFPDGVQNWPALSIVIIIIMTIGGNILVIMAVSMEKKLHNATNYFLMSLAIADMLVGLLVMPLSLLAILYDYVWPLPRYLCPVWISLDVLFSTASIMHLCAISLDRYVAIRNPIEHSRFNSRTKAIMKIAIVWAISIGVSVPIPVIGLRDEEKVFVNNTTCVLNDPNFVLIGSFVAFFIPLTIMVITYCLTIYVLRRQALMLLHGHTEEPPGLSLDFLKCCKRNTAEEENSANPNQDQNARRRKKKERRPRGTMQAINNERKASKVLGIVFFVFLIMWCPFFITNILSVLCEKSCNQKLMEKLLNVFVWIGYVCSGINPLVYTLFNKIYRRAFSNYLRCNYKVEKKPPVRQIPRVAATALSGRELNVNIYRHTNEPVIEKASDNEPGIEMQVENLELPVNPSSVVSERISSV

Serotonin 5-HT7 = biological target: T10, Serotonin 5-HT7 (Homo sapiens, UniProt P34969); experiment: Radioligand displacement binding assay, [3H]LSD, 5-HT7
T10 construct: host or cells: CHO-K1
T10 sequence (P34969 whole entry): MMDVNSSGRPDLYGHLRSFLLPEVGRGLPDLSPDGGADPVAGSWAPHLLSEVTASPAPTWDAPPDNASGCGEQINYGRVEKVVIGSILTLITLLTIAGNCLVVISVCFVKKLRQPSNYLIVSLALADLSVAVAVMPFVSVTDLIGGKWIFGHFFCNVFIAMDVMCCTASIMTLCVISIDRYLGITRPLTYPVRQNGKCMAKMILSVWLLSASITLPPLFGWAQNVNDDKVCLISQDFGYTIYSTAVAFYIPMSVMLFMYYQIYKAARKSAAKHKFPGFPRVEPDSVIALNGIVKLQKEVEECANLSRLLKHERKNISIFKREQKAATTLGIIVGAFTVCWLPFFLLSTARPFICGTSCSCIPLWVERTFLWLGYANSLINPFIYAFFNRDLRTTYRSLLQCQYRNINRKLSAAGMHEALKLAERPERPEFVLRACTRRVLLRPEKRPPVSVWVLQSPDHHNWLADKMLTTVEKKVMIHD

[4] = biological target: GluN1-GluN2D NMDAR subtype (Homo sapiens, UniProt O15399+Q05586); experiment: FLIPR/Ca2+ assay, NMDAR GluN1-GluN2D subtype in CHO cells; assay type: cell-based; settings: CHO cells, 10 μM L-glutamate and 10 μM glycine; n.d. = 50% of inhibition could not be reached at the highest concentration used
How it was run: as §1

Muscarinic M5 = biological target: T11, Muscarinic M5 (Homo sapiens, UniProt P08912); experiment: Radioligand displacement binding assay, [3H]N-methylscopolamine, M5
T11 construct: host or cells: CHO-K1
T11 sequence (P08912 1-532): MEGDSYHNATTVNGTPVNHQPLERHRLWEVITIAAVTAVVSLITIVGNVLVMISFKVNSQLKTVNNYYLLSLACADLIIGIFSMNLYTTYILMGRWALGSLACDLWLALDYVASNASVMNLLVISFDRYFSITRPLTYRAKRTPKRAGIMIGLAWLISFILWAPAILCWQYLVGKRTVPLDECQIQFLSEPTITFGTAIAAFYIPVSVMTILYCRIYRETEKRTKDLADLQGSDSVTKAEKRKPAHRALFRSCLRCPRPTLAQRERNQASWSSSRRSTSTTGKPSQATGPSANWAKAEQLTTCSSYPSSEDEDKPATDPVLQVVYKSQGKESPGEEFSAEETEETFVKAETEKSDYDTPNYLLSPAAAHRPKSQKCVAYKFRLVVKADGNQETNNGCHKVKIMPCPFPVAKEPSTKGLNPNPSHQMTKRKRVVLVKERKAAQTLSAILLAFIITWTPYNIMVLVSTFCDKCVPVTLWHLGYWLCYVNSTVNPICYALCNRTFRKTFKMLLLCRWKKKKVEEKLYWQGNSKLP

[5] = biological target: GluN1-GluN2C NMDAR subtype (Homo sapiens, UniProt Q05586+Q14957); experiment: FLIPR/Ca2+ assay, NMDAR GluN1-GluN2C subtype in CHO cells; assay type: cell-based; settings: CHO cells, 10 μM L-glutamate and 10 μM glycine; n.d. = 50% of inhibition could not be reached at the highest concentration used
GluN1-GluN2C NMDAR subtype, sequence (Q14957 20-1233, other chains not shown): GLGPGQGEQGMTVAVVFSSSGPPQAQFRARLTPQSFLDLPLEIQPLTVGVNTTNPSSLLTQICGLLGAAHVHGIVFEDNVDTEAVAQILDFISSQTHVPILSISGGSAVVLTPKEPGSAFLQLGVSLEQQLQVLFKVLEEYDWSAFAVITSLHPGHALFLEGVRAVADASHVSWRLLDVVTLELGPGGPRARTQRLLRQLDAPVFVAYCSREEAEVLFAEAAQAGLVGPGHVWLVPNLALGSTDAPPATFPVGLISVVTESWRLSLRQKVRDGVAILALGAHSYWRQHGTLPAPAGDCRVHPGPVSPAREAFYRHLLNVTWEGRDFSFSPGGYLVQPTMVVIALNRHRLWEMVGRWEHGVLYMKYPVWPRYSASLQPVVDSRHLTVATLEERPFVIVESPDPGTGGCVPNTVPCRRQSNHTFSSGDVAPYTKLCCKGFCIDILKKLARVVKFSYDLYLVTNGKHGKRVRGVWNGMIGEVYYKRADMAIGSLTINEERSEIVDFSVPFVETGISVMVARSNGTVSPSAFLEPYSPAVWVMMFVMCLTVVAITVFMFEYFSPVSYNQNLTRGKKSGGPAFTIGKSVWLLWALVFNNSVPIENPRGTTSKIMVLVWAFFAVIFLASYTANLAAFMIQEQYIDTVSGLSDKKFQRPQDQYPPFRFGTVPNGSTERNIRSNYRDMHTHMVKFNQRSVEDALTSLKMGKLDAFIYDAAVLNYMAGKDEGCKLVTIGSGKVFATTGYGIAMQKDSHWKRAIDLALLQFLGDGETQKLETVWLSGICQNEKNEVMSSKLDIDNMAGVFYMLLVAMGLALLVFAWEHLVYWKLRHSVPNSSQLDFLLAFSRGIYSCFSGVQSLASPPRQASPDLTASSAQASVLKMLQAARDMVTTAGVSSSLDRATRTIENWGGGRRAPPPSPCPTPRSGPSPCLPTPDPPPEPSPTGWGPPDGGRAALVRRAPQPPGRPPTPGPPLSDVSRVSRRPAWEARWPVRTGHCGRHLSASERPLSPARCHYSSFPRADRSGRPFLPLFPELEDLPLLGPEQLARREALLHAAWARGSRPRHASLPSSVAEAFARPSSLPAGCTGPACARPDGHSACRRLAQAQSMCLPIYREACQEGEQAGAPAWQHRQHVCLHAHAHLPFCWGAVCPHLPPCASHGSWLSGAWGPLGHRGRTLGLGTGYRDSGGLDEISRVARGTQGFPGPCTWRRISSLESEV
How it was run: as §1

[6] = biological target: T12, Serotonin transporter SERT (Homo sapiens, UniProt P31645); experiment: Radioligand displacement binding assay, [3H]paroxetine, SERT
T12 construct: host or cells: HEK-293
T12 sequence (P31645 whole entry): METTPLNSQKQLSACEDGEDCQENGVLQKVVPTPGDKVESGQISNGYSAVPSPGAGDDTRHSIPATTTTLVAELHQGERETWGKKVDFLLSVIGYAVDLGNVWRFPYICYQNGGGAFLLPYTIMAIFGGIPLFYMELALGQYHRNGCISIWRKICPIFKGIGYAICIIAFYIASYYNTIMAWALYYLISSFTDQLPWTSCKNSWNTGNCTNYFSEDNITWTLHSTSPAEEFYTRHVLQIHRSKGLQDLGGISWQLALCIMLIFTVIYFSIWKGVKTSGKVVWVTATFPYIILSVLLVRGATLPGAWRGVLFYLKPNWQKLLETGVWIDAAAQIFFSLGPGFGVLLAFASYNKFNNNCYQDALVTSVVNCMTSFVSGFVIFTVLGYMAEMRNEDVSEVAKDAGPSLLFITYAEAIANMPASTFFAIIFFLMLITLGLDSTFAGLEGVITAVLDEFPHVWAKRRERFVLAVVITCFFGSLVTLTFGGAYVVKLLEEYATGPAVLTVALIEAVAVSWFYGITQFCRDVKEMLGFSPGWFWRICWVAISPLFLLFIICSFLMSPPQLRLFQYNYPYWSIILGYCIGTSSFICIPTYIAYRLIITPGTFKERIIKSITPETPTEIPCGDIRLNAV

[7] = test system: Glutamate, NMDA, Phencyclidine binding site; experiment: Radioligand displacement binding assay, [3H]TCP, NMDA; set-up: species or system Wistar rat

T1 sequence (Q99720 whole entry): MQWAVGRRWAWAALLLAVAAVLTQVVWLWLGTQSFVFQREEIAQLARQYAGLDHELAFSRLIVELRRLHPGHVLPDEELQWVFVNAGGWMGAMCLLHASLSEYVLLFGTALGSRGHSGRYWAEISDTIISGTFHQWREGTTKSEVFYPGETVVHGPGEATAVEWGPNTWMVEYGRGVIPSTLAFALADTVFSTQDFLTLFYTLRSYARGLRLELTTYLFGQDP

Compound | inhibition at 0.3 µM (Sigma σ1) [%] | inhibition at 3 µM (Sigma σ1) [%] | pIC50 (mean ± SEM) GluN1-GluN2B [1] | inhibition at 0.3 µM (Serotonin 5-HT1A) [%] | inhibition at 3 µM (Serotonin 5-HT1A) [%] | inhibition at 0.3 µM (Serotonin 5-HT2A) [%] | inhibition at 3 µM (Serotonin 5-HT2A) [%] | inhibition at 10 µM (Histamine H1) [%] | inhibition at 30 µM (Histamine H1) [%] | inhibition at 1 µM (Serotonin 5-HT5A) [%] | inhibition at 10 µM (Serotonin 5-HT5A) [%] | inhibition at 0.3 µM (μ opioid receptor (MOP)) [%] | inhibition at 3 µM (μ opioid receptor (MOP)) [%] | inhibition at 1 µM [2] [%] | inhibition at 10 µM [2] [%] | pIC50 (mean ± SEM) GluN1-GluN2A [3] | inhibition at 0.3 µM (Serotonin 5-HT2C) [%] | inhibition at 3 µM (Serotonin 5-HT2C) [%] | inhibition at 1 µM (Serotonin 5-HT7) [%] | inhibition at 10 µM (Serotonin 5-HT7) [%] | further results
CC[C@H](O)C(C[C@@H](C)NC)(c1ccccc1)c1ccccc1 [(3S,6R)-NML, (3S,6R)-6-(methylamino)-4,4-diphenylheptan-3-ol] | -1 | 26 | 4.6 ± 0.047 | -1 | -4 | -3 | 11 | 7 | 27 | 4 | 42 | 2 | 26 | 4 | 9 | 4.8 ± 0.050 | 15 | 68 | 11 | 7 | pKi (mean ± SEM) [3H]diprenorphine, MOP (μ opioid receptor (MOP)): 5.55 ± 0.17; pIC50 (mean ± SEM) GluN1-GluN2D [4]: 5.0 ± 0.058; inhibition at 1 µM (Muscarinic M5): 21%; inhibition at 10 µM (Muscarinic M5): 74%; pIC50 (mean ± SEM) GluN1-GluN2C [5]: 5.0 ± 0.049; inhibition at 1 µM [6]: 10%; % inhibition of binding, SERT ([6]; 10 μM): displaced; inhibition at 10 µM ([6]; 10 μM): 61%; % inhibition of binding, NMDA ([7]; 1 μM): -5%; % inhibition of binding, NMDA ([7]; 10 μM): 51%; pKi (mean ± SEM) [3H]TCP, NMDA ([7]; Wistar rat cerebral cortex, 4.0 nM [3H]TCP): 5.54 ± 0.09
CC[C@H](O)C(C[C@H](C)NC)(c1ccccc1)c1ccccc1 [(3S,6S)-NML, (3S,6S)-6-(methylamino)-4,4-diphenylheptan-3-ol] | 46 | 77 | 4.7 ± 0.080 | -4 | 1 | -10 | -11 | 33 | 65 | 1 | 10 | 65 | 95 | -12 | 12 | 4.6 ± 0.062 | 5 | 28 | 12 | 23 | displacement at the Sigma-1 (σ1) receptor, in words (Sigma σ1; concentration not given): high displacement percentages; displacement at the histamine H1 receptor, in words (Histamine H1; concentration not given): significant displacement percentages; displacement at the MOP, in words (μ opioid receptor (MOP); concentration not given): high displacement percentages; pIC50 (mean ± SEM) GluN1-GluN2D [4]: 4.6 ± 0.065; inhibition at 1 µM (Muscarinic M5): 2%; inhibition at 10 µM (Muscarinic M5): 15%; pIC50 (mean ± SEM) GluN1-GluN2C [5]: 4.7 ± 0.042; inhibition at 1 µM [6]: 2%; inhibition at 10 µM ([6]; 10 μM): 25%; % inhibition of binding, NMDA ([7]; 1 μM): 9%
